Tests used:
[1] = biological target: Replicase polyprotein 1ab (Severe acute respiratory syndrome coronavirus 2, UniProt P0DTD1); assay: Inhibition of full length N-terminal his6-tagged SARS-CoV-2 3CL protease using FAM-SAVLQ as substrate preincubated with compound for 30 mins followed by substrate addition and measured after 30 mins by FRET assay
[2] = Inhibition of MERS-CoV 3CLpro using SG-QXL520 as substrate preincubated with compound for 30 mins followed by susbtrate addition and measured after 30 mins by FRET assay; parameters: species or system Middle East respiratory syndrome-related coronavirus
SARS-CoV-2 = assay: Antiviral activity against SARS CoV-2 Wuhan-Hu-1 infected in HEK293T cells incubated for 24 hrs; format: functional, organism-based; settings: Severe acute respiratory syndrome coronavirus 2, Wuhan-Hu-1, HEK-293T
[3] = Cytotoxicity against cat CRFK cells incubated for 72 hrs by CytoTox 96 analysis; format: toxicity, cell-based, Felis catus

`CC(C)C[C@H](NC(=O)OC[C@@H]1CCC(=O)N1Cc1ccc2c(c1)OC(F)(F)O2)C(=O)N[C@H](C=O)C[C@@H]1CCNC1=O` showed an IC50 [1] of 270 nM, an IC50 [2] of 50 nM and an EC50 (SARS-CoV-2) of 510 nM. For the same molecule, the CC50 at 72 h [3] was greater than 50000 nM.

Work on `CC(C)C[C@H](NC(=O)OCC1CC(=O)N(CC2CC3C=CC2C3)C1)C(=O)N[C@H](C=O)C[C@@H]1CCNC1=O` (stereo not given in full) yielded an IC50 [1] of 190 nM, an IC50 [2] of 80 nM and an EC50 (SARS-CoV-2) of 280 nM. The CC50 at 72 h [3] was greater than 50000 nM.

`CC(C)C[C@H](NC(=O)OC[C@@H]1CCC(=O)N1Cc1cccc(C(F)(F)F)c1)C(=O)N[C@H](C=O)C[C@@H]1CCNC1=O` gave an IC50 [1] of 740 nM, an IC50 [2] of 50 nM and an EC50 (SARS-CoV-2) of 560 nM. For the same molecule, the CC50 at 72 h [3] was greater than 50000 nM.

In the case of `CC(C)C[C@H](NC(=O)OC[C@@H]1CCC(=O)N1CC1CCCCC1)C(=O)N[C@H](C=O)C[C@@H]1CCNC1=O`, the IC50 [1] is reported as 250 nM, the IC50 [2] is reported as 50 nM and the EC50 (SARS-CoV-2) is reported as 750 nM. It also gave a CC50 at 72 h [3] greater than 50000 nM.

For `CC(C)C[C@H](NC(=O)OC[C@@H]1CCC(=O)N1Cc1cccc(Cl)c1)C(=O)N[C@@H](C[C@@H]1CCNC1=O)C(O)S(=O)(=O)O` (stereo not given in full), the IC50 [1] was 100 nM, the IC50 [2] was 18 nM and the EC50 (SARS-CoV-2) was 120 nM. For the same molecule, the CC50 at 72 h [3] was greater than 50000 nM.

With `CC(C)C[C@H](NC(=O)OCC1CC(=O)N(CC2CCCCC2)C1)C(=O)N[C@@H](C[C@@H]1CCNC1=O)C(O)S(=O)(=O)O` (stereo not given in full) the IC50 [1] was 370 nM, the IC50 [2] was 50 nM and the EC50 (SARS-CoV-2) was 150 nM. The CC50 at 72 h [3] was greater than 50000 nM.

For `CC(C)C[C@H](NC(=O)OC[C@@H]1CCC(=O)N1CC1CCCCC1)C(=O)N[C@@H](C[C@@H]1CCNC1=O)C(O)S(=O)(=O)O` (stereo not given in full), the IC50 [1] was 280 nM, the IC50 [2] was 60 nM and the EC50 (SARS-CoV-2) was 790 nM. For the same molecule, the CC50 at 72 h [3] was greater than 50000 nM.

With `CC(C)C[C@H](NC(=O)OCC1CCN(CC2CCCCC2)C1=O)C(=O)N[C@@H](C[C@@H]1CCNC1=O)C(O)S(=O)(=O)O` (stereo not given in full) the IC50 [1] was 220 nM, the IC50 [2] was 170 nM and the EC50 (SARS-CoV-2) was 20 nM. For the same molecule, the CC50 at 72 h [3] was greater than 50000 nM.

With `CC(C)C[C@H](NC(=O)OC[C@@H]1CCC(=O)N1Cc1cccc(F)c1)C(=O)N[C@@H](C[C@@H]1CCNC1=O)C(O)S(=O)(=O)O` (stereo not given in full) the IC50 [1] was 160 nM, the IC50 [2] was 240 nM and the EC50 (SARS-CoV-2) was 40 nM. It also gave a CC50 at 72 h [3] greater than 50000 nM.

In the case of `CC(C)C[C@H](NC(=O)OCC1CCN(CC2CCCCC2)C1=O)C(=O)N[C@H](C=O)C[C@@H]1CCNC1=O` (stereo not given in full), the IC50 [1] is reported as 230 nM, the IC50 [2] is reported as 310 nM and the EC50 (SARS-CoV-2) is reported as 20 nM. It also gave a CC50 at 72 h [3] greater than 50000 nM.

Work on `CC(C)C[C@H](NC(=O)OC[C@@H]1CCC(=O)N1Cc1cccc(Cl)c1)C(=O)N[C@H](C=O)C[C@@H]1CCNC1=O` yielded an IC50 [1] of 110 nM, an IC50 [2] of 17 nM and an EC50 (SARS-CoV-2) of 110 nM. The CC50 at 72 h [3] was greater than 50000 nM.

`CC(C)C[C@H](NC(=O)OCC1CC(=O)N(CC2CC3C=CC2C3)C1)C(=O)N[C@@H](C[C@@H]1CCNC1=O)C(O)S(=O)(=O)O` (stereo not given in full) gave an IC50 [1] of 190 nM, an IC50 [2] of 80 nM and an EC50 (SARS-CoV-2) of 350 nM. For the same molecule, the CC50 at 72 h [3] was greater than 50000 nM.

In the case of `CC(C)C[C@H](NC(=O)OCC1CC(=O)N(CC2CC3CCC2C3)C1)C(=O)N[C@@H](C[C@@H]1CCNC1=O)C(O)S(=O)(=O)O` (stereo not given in full), the IC50 [1] is reported as 170 nM, the IC50 [2] is reported as 70 nM and the EC50 (SARS-CoV-2) is reported as 80 nM. The CC50 at 72 h [3] was greater than 50000 nM.

Work on `CC(C)C[C@H](NC(=O)OC[C@@H]1CCC(=O)N1Cc1ccc2c(c1)OC(F)(F)O2)C(=O)N[C@@H](C[C@@H]1CCNC1=O)C(O)S(=O)(=O)O` (stereo not given in full) yielded an IC50 [1] of 320 nM, an IC50 [2] of 50 nM and an EC50 (SARS-CoV-2) of 450 nM. It also gave a CC50 at 72 h [3] greater than 50000 nM.

Work on `CC(C)C[C@H](NC(=O)OC[C@@H]1CCC(=O)N1Cc1cccc(C(F)(F)F)c1)C(=O)N[C@@H](C[C@@H]1CCNC1=O)C(O)S(=O)(=O)O` (stereo not given in full) yielded an IC50 [1] of 770 nM, an IC50 [2] of 50 nM and an EC50 (SARS-CoV-2) of 490 nM. For the same molecule, the CC50 at 72 h [3] was greater than 50000 nM.

Reference: ChEMBL document CHEMBL5523732, “Structure-Guided Design of Potent Coronavirus Inhibitors with a 2-Pyrrolidone Scaffold: Biochemical, Crystallographic, and Virological Studies” (J Med Chem, 2024)
